Source: patent US12508265B2, “Methods and compositions for reducing radiation induced toxicity” (Tosk, Inc., priority 2018, dated 2025)
Like-named read-outs stand apart in the source and are kept apart here.

How the values were obtained:
[1] = format: in vivo; conditions: TK-112690 60 mg/kg ip or 240 mg/kg po bid plus uridine 60 mg/kg vs PBS; 12 Gy; ip and po combined; p=0.012
Text: • Animal Species: Mouse (Mus musculus) • Strain/substrain: C57BL6 (negative for Klebsiella oxytoca) • Source: Jackson Laboratories, MP-14, Bar Harbour, Me 04609, USA • Total animals: 40 males plus 5 spares • Body weight range: 18 to 25 g at start of treatment • Animal ages: 10 to 12 weeks at start of treatment • Housing: Animals were individually housed in rodent polycarbonated bins with bedding (irradiated Teklad sani chips) equipped with water bottles. Following group assignment, all cages were clearly labeled with a color-coded cage card indicating at least the study number and animal number. • Animal Identification: Each animal was individually identified using a permanent marker. • Group Animal Numbers: Each animal was given a four-number identification code. The first number corresponds to the respective dose group (1-4). […] Concentrations of the contaminants (e.g., heavy metals, aflatoxin, organophosphate and chlorinated hydrocarbons) were routinely measured by the manufacturers. […]
Mortality checks were recorded concomitantly with the cage-side observations (see below for clinical signs), during all phases of the study. […]

[2] = tested on: surviving regenerating intestinal crypts; assay: Small intestinal crypt survival in murine total-body irradiation (TBI) model of intestinal mucositis; format: in vivo, Mouse (Mus musculus) C57BL6; conditions: 12 Gy
Text: The aim of the study whose results are provided in FIG. 2-6 was to determine the effect of TK-112690 on small intestinal crypt survival, in a murine total-body irradiation (TBI) model of intestinal mucositis.
• Animal Species: Mouse (Mus musculus) • Strain/substrain: C57BL6 (negative for Klebsiella oxytoca) • Source: Jackson Laboratories, MP-14, Bar Harbour, Me 04609, USA • Total animals: 40 males plus 5 spares • Body weight range: 18 to 25 g at start of treatment • Animal ages: 10 to 12 weeks at start of treatment • Housing: Animals were individually housed in rodent polycarbonated bins with bedding (irradiated Teklad sani chips) equipped with water bottles. Following group assignment, all cages were clearly labeled with a color-coded cage card indicating at least the study number and animal number. • Animal Identification: Each animal was individually identified using a permanent marker. • Group Animal Numbers: Each animal was given a four-number identification code. The first number corresponds to the respective dose group (1-4). The second number refers to whether the animal is the original animal, for instance the number 0, or a replacement, for instance 1, The third and fourth numbers identify the animal's rank within each group. • Room Environment: The animal room environment was set to maintain a temperature of 21±3° C., a relative humidity of 50±20%; and a light dark cycle of 12 hours light/12 hours dark, except during Study Plan-designated procedures. • Diet/Water: A standard certified commercial chow (Envigo Teklad Certified Irradiated Global Rodent Diet #2918C) was provided to the animals ad libitum except during designated procedures. Treats or fruits/vegetables were provided as part of the animal enrichment program. Concentrations of the contaminants (e.g., heavy metals, aflatoxin, organophosphate and chlorinated hydrocarbons) were routinely measured by the manufacturers. Acidified (pH between 2.75 and 3.25) municipal tap water (which had been exposed to ultraviolet light and purified by reverse osmosis) was provided to all animals ad libitum, except during designated procedures, via water bottles. Water bottles were changed at least every 3 days prior to irradiation and every 2 days after irradiation. Acidified water was changed every day after irradiation. During transportation and irradiation, animals were provided with food and water gel packs. Animals received water gel packs at least 2 days before transportation to acclimate to this type of hydration supplement and this procedure continued until necropsy. In addition, wetted food was provided to the animals on the bottom of the bins from Day 1 to the day of necropsy. • Acclimation: An acclimation period of at least 14 days was allowed between receipt of the animals and the start of dosing to accustom the animals to the laboratory environment. • Animal Assignment: During the acclimation period, animals were separately assigned to dose groups by a randomizing stratification system based on body weights. For logistical reasons, the animals were assigned to replicate subgroups, which may initiate dosing on different days.
The test item and reference item/vehicle are administered by intraperitoneal injection (ip) or oral gavage (po) 1.5 to 2 hour prior and 4 hours post irradiation and then twice daily (12 hours apart) for 4 consecutive days (Days 2 to 5), as shown below: […]

[3] = Plasma concentration profile over 8 hours in mice (LC/MS); format: in vivo, CD-1 Female Mice; conditions: mouse plasma; for half-life: female, CD-1, read-out: Elimination half-life (converted)
Procedure: FIG. 3 depicts a set of data expressing plasma concentration profile over 8 hours in mice administered either 60 mg/kg of TK-112690 ip or 240 mg/kg po by gavage. Plasma samples from 3 animals/timepoint were analyzed. CD-1 Female Mice (n=3) were dosed with either 60 (ip) or 240 (po) mg/kg TK-112690 in PBS. Blood samples were obtained at the designated timepoints, and the samples analyzed for drug using LC/MS.

Structure (SMILES): Cc1cn2c(nc1=O)O[C@H]1[C@H](O)[C@@H](CO)O[C@H]12 [TK-112690]
- difference in body weight between pre-treatment and day 6 (Z scores) [1]: modest, highly statistically significant (p=0.012) protection from weight loss
- number of surviving intestinal crypts in the jejunum, Z scores ([2]; TK-112690 60 mg/kg ip bid plus uridine 60 mg/kg vs PBS, p=0.029): ameliorates the mucosal damage in the jejunum
- number of surviving intestinal crypts in the jejunum, Z scores ([2]; TK-112690 60 mg/kg ip or 240 mg/kg po bid (combined) plus uridine 60 mg/kg vs PBS, p=0.007): minimizes the mucosal damage in the jejunum
- number of surviving intestinal crypts (jejunum, duodenum, ileum), Z scores ([2]; TK-112690 60 mg/kg ip or 240 mg/kg po bid plus uridine 60 mg/kg vs PBS, p=0.03): lessens the mucosal damage associated with radiation treatment
- number of surviving intestinal crypts in the duodenum, Z scores ([2]; TK-112690 60 mg/kg ip or 240 mg/kg po bid plus uridine 60 mg/kg vs PBS, p=0.046): ameliorates the mucosal damage in the duodenum
- number of surviving intestinal crypts in the jejunum, Z scores ([2]; TK-112690 240 mg/kg po bid plus uridine 60 mg/kg vs PBS, p=0.041): ameliorates the mucosal damage in the jejunum
- AUC0→Last ([3]; 60 mg/kg ip in PBS): Approximately 30 (micrograms/mL)*hour
- AUC0→Last ([3]; 240 mg/kg po by gavage in PBS): ~40 (micrograms/mL)*hour
- half-life ([3]; 60 mg/kg ip in PBS): ~2.5 h
- half-life ([3]; 240 mg/kg po by gavage in PBS): ~2.5 h
